This is an account of results in patent US11752149B2, “Muscarinic acetylcholine M1 receptor antagonists” (Pipeline Therapeutics, Inc., priority 2019, dated 2023).

In one assay the target is human M1 receptor (Homo sapiens (Human), UniProt P11229). Briefly: In vitro functional assay of muscarinic acetylcholine receptor activity, aequorin calcium flux, reversal of EC80 acetylcholine. Type of assay: cell-based.
Sequence of human M1 receptor (P11229 whole entry): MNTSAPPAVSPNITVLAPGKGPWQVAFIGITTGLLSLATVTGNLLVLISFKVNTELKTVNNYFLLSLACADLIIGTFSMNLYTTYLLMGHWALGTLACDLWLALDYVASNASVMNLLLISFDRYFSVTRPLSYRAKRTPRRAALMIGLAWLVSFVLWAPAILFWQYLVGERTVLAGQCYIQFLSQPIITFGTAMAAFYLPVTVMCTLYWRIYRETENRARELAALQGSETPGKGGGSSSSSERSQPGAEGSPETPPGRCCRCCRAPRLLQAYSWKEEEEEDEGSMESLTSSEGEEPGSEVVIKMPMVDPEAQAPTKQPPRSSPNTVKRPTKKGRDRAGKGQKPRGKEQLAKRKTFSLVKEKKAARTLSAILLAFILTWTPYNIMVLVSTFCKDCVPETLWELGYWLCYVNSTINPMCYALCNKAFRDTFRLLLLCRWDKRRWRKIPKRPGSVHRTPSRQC
Details: not given
On the procedure:
CHO-K1 cells stably expressing human M1 receptor with aequorin (Perkin Elmer) were grown in F12 media (Gibco) containing 10% FBS (ATCC), 0.4 mg/mL geneticin (Sigma-Aldrich) and 0.25 mg/mL Zeocin (Invitrogen). Cells were grown as per the manufacturer's protocol. For compound testing, cells were grown to confluency and detached gently with Accutase (Sigma-Aldrich) followed by centrifugation for 5 min at 150×g. Cells were then re-suspended in assay buffer (i.e. DMEM/F-12 HEPES without phenol red (Invitrogen) with 0.1% BSA (Sigma-Aldrich)) at a density of 5×10^6 cells/ml. Under sterile conditions, 5 μM coelenterazine (Invitrogen) was added to the cells, mixed, then incubated at room temperature protected from light, with gentle agitation, for 4 h.
Primary compound plates were prepared in 100% DMSO in opaque 96-well plates (VWR) and serially diluted in half log increments. Secondary compound plates were prepared at 3× concentration in assay buffer. Compounds were added to white, clear bottom tissue culture treated 96-well plates (Fisher Scientific). Coelenterazine-loaded cells were then added at 5×10^5 cells/well.
Compounds and cells were incubated at room temperature for 30 min in the dark. Acetylcholine at the EC80 concentration was added and calcium flux measured using a FlexStation 3 (Molecular Devices). Sigmoidal dose-response curves were generated by measuring luminescence over 40 sec and calculating the area under the curve. Dose response curves and IC50 values were generated using Prism (GraphPad). Compounds were tested at a final concentration range of 100 pM to 10 μM in 0.1% DMSO.
In the case of `N#Cc1ccc(N2C3CCC2CN(C(=O)CCS(=O)(=O)c2ccccc2C2CC2(F)F)C3)nc1` (racemic) [Example 5, 6-(3-(3-((2-(2,2-difluorocyclopropyl)phenyl)-sulfonyl)-propanoyl)-3,8-diazabicyclo[3.2.1]octan-8-yl)nicotinonitrile], the concentration for half-maximal inhibition (IC50) was in the range of 0.01 to 0.1 µM.

As to `N#Cc1ccc(N2C3CCC2CN(C(=O)CCS(=O)(=O)c2ccccc2[C@@H]2CC2(F)F)C3)nc1` (single isomer, unassigned) [Example 36], the IC50 was in the range of 0.1 to 1 µM.

For the molecule `N#Cc1ccc(N2C3CCC2CN(C(=O)CCS(=O)(=O)c2cccc(F)c2)C3)nc1` [Example 7, 6-{3-[3-(3-fluorobenzenesulfonyl)propanoyl]-3,8-diazabicyclo[3.2.1]octan-8-yl}pyridine-3-carbonitrile], the IC50 was 0.01 to 0.1 µM.

`N#Cc1ccc(N2C3CCC2CN(C(=O)CCS(=O)(=O)c2cc(F)cc(F)c2)C3)nc1` [Example 8, 6-{3-[3-(3,5-difluorobenzenesulfonyl)propanoyl]-3,8-diazabicyclo [3.2.1]octan-8-yl}pyridine-3-carbonitrile]: the half-maximal inhibitory concentration (IC50) fell in the range of 0.01 to 0.1 µM.

Take `COc1cccc(S(=O)(=O)CCC(=O)N2CC3CCC(C2)N3c2ccc(C)nn2)c1` [Example 9, 3-(3-methoxybenzenesulfonyl)-1-[8-(6-methylpyridazin-3-yl)-3,8-diazabicyclo[3.2.1]octan-3-yl]propan-1-one]: the IC50 is 0.1 to 1 µM.

As for `COc1cc(F)cc(S(=O)(=O)CCC(=O)N2CC3CCC(C2)N3c2ccc(C#N)cn2)c1` [Example 11, 6-{3-[3-(3-fluoro-5-methoxybenzenesulfonyl)propanoyl]-3,8-diazabicyclo [3.2.1]octan-8-yl}pyridine-3-carbonitrile], the IC50 fell in the range of 0.01 to 0.1 µM.

On to `COc1ccccc1S(=O)(=O)CCC(=O)N1CC2CCC(C1)N2c1ccc(C#N)cn1` [Example 12, 6-{3-[3-(2-methoxybenzenesulfonyl)propanoyl]-3,8-diazabicyclo [3.2.1]octan-8-yl}pyridine-3-carbonitrile], for which the 50% inhibitory concentration (IC50) lay in the range of 0.01 to 0.1 µM.

In the case of `COc1ccc(F)cc1S(=O)(=O)CCC(=O)N1CC2CCC(C1)N2c1ccc(C#N)cn1` [Example 13, 6-{3-[3-(5-fluoro-2-methoxybenzenesulfonyl)propanoyl]-3,8-diazabicyclo [3.2.1]octan-8-yl}pyridine-3-carbonitrile], the 50% inhibitory concentration (IC50) was in the range of 0.01 to 0.1 µM.

On to `COc1c(F)cccc1S(=O)(=O)CCC(=O)N1CC2CCC(C1)N2c1ccc(C#N)cn1` [Example 14, 6-{3-[3-(3-fluoro-2-methoxybenzenesulfonyl)propanoyl]-3,8-diazabicyclo [3.2.1]octan-8-yl}pyridine-3-carbonitrile], for which the IC50 lay in the range of 0.01 to 0.1 µM.

The assay is the same for the next values; noted with them: CHO-K1 cells expressing human M1 receptor with aequorin; acetylcholine at EC80; read-out: M1 IC50.
Turning to `N#Cc1ccc(N2C3CCC2CN(C(=O)CCCS(=O)(=O)c2ccccc2I)C3)nc1` [Example 1, 6-(3-(4-((2-iodophenyl)sulfonyl)butanoyl)-3,8-diazabicyclo[3.2.1]octan-8-yl)nicotinonitrile], the IC50 was under 0.01 µM.

Turning to `N#Cc1ccc(N2C3CCC2CN(C(=O)CCS(=O)(=O)c2cccc(F)c2C2CC2)C3)nc1` [Example 4, 6-(3-(3-((2-cyclopropyl-3-fluorophenyl)sulfonyl)-propanoyl)-3,8-diazabicyclo[3.2.1]octan-8-yl)nicotinonitrile], the IC50 was under 0.01 µM.

Regarding `CC(C)(O)c1cc(S(=O)(=O)CCC(=O)N2CC3CCC(C2)N3c2ccc(C#N)cn2)ccc1F` [Example 6, 6-(3-(3-((4-fluoro-3-(2-hydroxypropan-2-yl)phenyl)-sulfonyl)propanoyl)-3,8-diazabicyclo[3.2.1]octan-8-yl)nicotinonitrile], the half-maximal inhibitory concentration (IC50) was 1 to 10 µM.

Turning to `COc1cccc(S(=O)(=O)CCC(=O)N2CC3CCC(C2)N3c2ccc(C)nc2)c1` [Example 10, 3-(3-methoxybenzenesulfonyl)-1-[8-(6-methylpyridin-3-yl)-3,8-diazabicyclo[3.2.1]octan-3-yl]propan-1-one], the concentration for half-maximal inhibition (IC50) was 1 to 10 µM.
